Values of other authors, collected in patent US10201585B2, “Methods for treatment of atherosclerosis” (Stealth Peptides International, Inc., priority 2012, dated 2019).

Key:
hepatitis C virus (HCV) = conditions: alone and with interferon; cited from earlier work
[1] = test system: spinal cord injury in rodents; conditions: administered both pre- and post-injury; cited from earlier work

SMILES | Effect on HCV in an in vitro model of HCV infection (hepatitis C virus (HCV)) | Effect in spinal cord injury [1]
CC[C@H](C)C(=O)O[C@H]1C[C@@H](C)C=C2C=C[C@H](C)[C@H](CC[C@@H]3C[C@@H](O)CC(=O)O3)[C@H]21 [lovastatin] | anti-HCV effect | 
O=C(O)C[C@H](O)C[C@H](O)/C=C/c1c(C2CC2)nc2ccccc2c1-c1ccc(F)cc1 [pitavastatin] | anti-HCV effect | 
CC(C)c1c(C(=O)Nc2ccccc2)c(-c2ccccc2)c(-c2ccc(F)cc2)n1CC[C@@H](O)C[C@@H](O)CC(=O)O [atorvastatin] | anti-HCV effect | promoting locomotion and tissue sparing, as well as reducing inflammation
